# Measured values taken from PubChem BioAssay (NCI).
#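 The compound was tested at five concentrations on cells cultured in 96-well plates, with a 48-hour exposure period. The concentration for 50% growth inhibition is given as GI50. TGI: concentration producing complete growth inhibition.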
# Columns and labels:
# Assay in all cases: NCI tumour cell line growth inhibition, 48 h
# [1] = test system: 786-0 renal
# [2] = test system: A498 renal
# [3] = test system: A549 NSCLC
# [4] = test system: ACHN renal
# [5] = test system: BT-549 breast
# [6] = test system: CAKI-1 renal
# [7] = test system: CCRF-CEM leukemia
# [8] = test system: COLO 205 colon
# [9] = test system: DU-145 prostate
# [10] = test system: EKVX NSCLC
# [11] = test system: HCC-2998 colon
# [12] = test system: HCT-116 colon
# [13] = test system: HCT-15 colon
# [14] = test system: HL-60(TB) leukemia
# [15] = test system: HOP-62 NSCLC
# [16] = test system: HOP-92 NSCLC
# [17] = test system: HS 578T breast
# [18] = test system: HT29 colon
# [19] = test system: IGROV1 ovarian
# [20] = test system: K-562 leukemia
# [21] = test system: KM12 colon
# [22] = test system: LOX IMVI melanoma
# [23] = test system: M14 melanoma
# [24] = test system: MALME-3M melanoma
# [25] = test system: MCF7 breast
# [26] = test system: MDA-MB-231 breast
# [27] = test system: MDA-MB-435
# [28] = test system: MDA-N
# [29] = test system: MOLT-4 leukemia
# [30] = test system: NCI-H226 lung
# [31] = test system: NCI-H23 lung
# [32] = test system: NCI-H460 lung
# [33] = test system: NCI-H522 lung
# [34] = test system: NCI/ADR-RES ovarian
# [35] = test system: OVCAR-3 ovarian
# [36] = test system: OVCAR-4 ovarian
# [37] = test system: OVCAR-5 ovarian
# [38] = test system: OVCAR-8 ovarian
# [39] = test system: PC-3 prostate
# [40] = test system: RPMI-8226 leukemia
# [41] = test system: RXF 393 renal
# [42] = test system: SF-268 CNS
# [43] = test system: SF-295 CNS
# [44] = test system: SF-539 CNS
# [45] = test system: SK-MEL-2 melanoma
# [46] = test system: SK-MEL-28 melanoma
# [47] = test system: SK-MEL-5 melanoma
# [48] = test system: SK-OV-3 ovarian
# [49] = test system: SN12C renal
# [50] = test system: SNB-19 CNS
# [51] = test system: SNB-75 CNS
# [52] = test system: SR leukemia
# [53] = test system: SW-620 colon
# [54] = test system: T-47D breast
# [55] = test system: TK-10 renal
# [56] = test system: U251 CNS
# [57] = test system: UACC-257 melanoma
# [58] = test system: UACC-62 melanoma
# [59] = test system: UO-31 renal
compound,measurement,setting,value
CCCNC(=O)CCC(C)[C@H]1CCC2C3C(C[C@H](OC(C)=O)[C@@]21C)[C@@]1(C)CCC2(C[C@H]1C[C@H]3OC(C)=O)OOC1(CCCCC1)OO2 (stereo partly specified),TGI,[1],6.53 µM
same,TGI,[2],50.1 µM
same,TGI,[3],2.82 µM
same,TGI,[4],2.62 µM
same,TGI,[5],12.4 µM
same,TGI,[6],1.54 µM
same,TGI,[7],4.95 µM
same,TGI,[8],3.64 µM
same,TGI,[9],3.36 µM
same,TGI,[10],3.95 µM
same,TGI,[11],> 43.3 µM
same,TGI,[12],> 61.5 µM
same,TGI,[13],> 100 µM
same,TGI,[14],3.94 µM
same,TGI,[15],1.34 µM
same,GI50,[16],1420 nM
same,TGI,[16],3.82 µM
same,TGI,[17],> 53 µM
same,TGI,[18],> 90.8 µM
same,TGI,[19],2.22 µM
same,TGI,[20],> 60.8 µM
same,TGI,[21],3.56 µM
same,TGI,[22],3.52 µM
same,TGI,[23],> 100 µM
same,TGI,[24],6.04 µM
same,TGI,[25],> 56.1 µM
same,TGI,[26],5.31 µM
same,TGI,[27],9.92 µM
same,TGI,[28],16.6 µM
same,TGI,[29],5.14 µM
same,TGI,[30],> 57.2 µM
same,TGI,[31],3.54 µM
same,TGI,[32],6.83 µM
same,TGI,[33],1.44 µM
same,TGI,[34],8.45 µM
same,TGI,[35],5.3 µM
same,TGI,[36],26.6 µM
same,TGI,[37],25.8 µM
same,TGI,[38],4.3 µM
same,TGI,[39],7.08 µM
same,TGI,[40],4.68 µM
same,TGI,[41],27.7 µM
same,TGI,[42],10.4 µM
same,TGI,[43],39.7 µM
same,TGI,[44],16 µM
same,TGI,[45],7.05 µM
same,TGI,[46],> 100 µM
same,TGI,[47],5.71 µM
same,TGI,[48],> 100 µM
same,TGI,[49],16 µM
same,TGI,[50],> 100 µM
same,TGI,[51],6.86 µM
same,TGI,[52],4.7 µM
same,TGI,[53],> 75.5 µM
same,TGI,[54],6.44 µM
same,TGI,[55],4.32 µM
same,TGI,[56],3.84 µM
same,TGI,[57],> 100 µM
same,TGI,[58],> 100 µM
same,TGI,[59],0.232 µM
CC(C)(C)OC(=O)N1CCc2c(n(C/C=C/c3ccccc3)[nH]c2=O)C1,TGI,[1],> 100 µM
same,TGI,[2],> 100 µM
same,TGI,[3],> 100 µM
same,TGI,[4],> 100 µM
same,TGI,[5],> 100 µM
same,TGI,[6],> 100 µM
same,TGI,[7],> 100 µM
same,TGI,[8],> 100 µM
same,TGI,[9],> 100 µM
same,TGI,[10],> 100 µM
same,TGI,[11],> 100 µM
same,TGI,[12],> 100 µM
same,TGI,[13],> 100 µM
same,TGI,[14],> 100 µM
same,TGI,[15],> 100 µM
same,TGI,[16],> 100 µM
same,TGI,[17],> 100 µM
same,TGI,[18],> 100 µM
same,TGI,[19],> 100 µM
same,TGI,[20],> 100 µM
same,TGI,[21],> 100 µM
same,TGI,[22],> 100 µM
same,TGI,[23],> 100 µM
same,TGI,[24],> 100 µM
same,TGI,[25],> 100 µM
same,TGI,[26],> 100 µM
same,TGI,[27],> 100 µM
same,TGI,[28],> 100 µM
same,TGI,[29],> 100 µM
same,TGI,[30],> 100 µM
same,TGI,[31],> 100 µM
same,TGI,[32],> 100 µM
same,TGI,[33],> 100 µM
same,TGI,[34],> 100 µM
same,TGI,[35],> 100 µM
same,TGI,[36],> 100 µM
same,TGI,[38],> 100 µM
same,TGI,[39],> 100 µM
same,TGI,[40],> 100 µM
same,TGI,[41],> 100 µM
same,TGI,[42],> 100 µM
same,TGI,[43],> 100 µM
same,TGI,[44],> 100 µM
same,TGI,[45],> 100 µM
same,TGI,[46],> 100 µM
same,TGI,[47],> 100 µM
same,TGI,[48],> 100 µM
same,TGI,[49],> 100 µM
same,TGI,[50],> 100 µM
same,TGI,[51],> 100 µM
same,TGI,[52],> 100 µM
same,TGI,[53],> 100 µM
same,TGI,[54],> 100 µM
same,TGI,[55],> 100 µM
same,TGI,[56],> 100 µM
same,TGI,[57],> 100 µM
same,TGI,[58],> 100 µM
same,TGI,[59],> 100 µM
O=C(O)C1C2C=CC(O2)C1C(=O)Nc1ncccn1 (stereo unspecified),TGI,[1],> 100 µM
same,TGI,[2],> 100 µM
same,TGI,[3],> 100 µM
same,TGI,[4],> 100 µM
same,TGI,[5],> 100 µM
same,TGI,[6],> 100 µM
same,TGI,[7],> 100 µM
same,TGI,[8],> 100 µM
same,TGI,[9],> 100 µM
same,TGI,[10],> 100 µM
same,TGI,[12],> 100 µM
same,TGI,[13],> 100 µM
same,TGI,[14],> 100 µM
same,TGI,[15],> 100 µM
same,TGI,[16],> 100 µM
same,TGI,[17],> 100 µM
same,TGI,[18],> 100 µM
same,TGI,[19],> 100 µM
same,TGI,[20],> 100 µM
same,TGI,[21],> 100 µM
same,TGI,[22],> 100 µM
same,TGI,[23],> 100 µM
same,TGI,[24],> 100 µM
same,TGI,[25],> 100 µM
same,TGI,[26],> 100 µM
same,TGI,[27],> 100 µM
same,TGI,[28],> 100 µM
same,TGI,[29],> 100 µM
same,TGI,[30],> 100 µM
same,TGI,[31],> 100 µM
same,TGI,[32],> 100 µM
same,TGI,[33],> 100 µM
same,TGI,[34],> 100 µM
same,TGI,[35],> 100 µM
same,TGI,[36],> 100 µM
same,TGI,[37],> 100 µM
same,TGI,[38],> 100 µM
same,TGI,[39],> 100 µM
same,TGI,[40],> 100 µM
same,TGI,[41],> 100 µM
same,TGI,[42],> 100 µM
same,TGI,[43],> 100 µM
same,TGI,[44],> 100 µM
same,TGI,[45],> 100 µM
same,TGI,[46],> 100 µM
same,TGI,[47],> 100 µM
same,TGI,[48],> 100 µM
same,TGI,[49],> 100 µM
same,TGI,[50],> 100 µM
same,TGI,[51],> 100 µM
same,TGI,[52],> 100 µM
same,TGI,[53],> 100 µM
same,TGI,[54],> 100 µM
same,TGI,[55],> 100 µM
same,TGI,[56],> 100 µM
same,TGI,[57],> 100 µM
same,TGI,[58],> 100 µM
same,TGI,[59],> 100 µM
